The target of one experiment is NK3 (Homo sapiens, UniProt P29371). In words: Neurokinin receptor NK3 binding. Particulars: [^3H]SR 142801, Human recombinant CHO cells, read-out: CR6086 Activity at 10µM.
The next experiment concerns the target 5-HT6 (Homo sapiens, UniProt P50406). Kind of experiment: Serotonin receptor 5-HT6 binding. Particulars: [^3H]LSD, Human recombinant CHO cells, read-out: CR6086 Activity at 10µM.
Another experiment deals with BZD (peripheral) (Rattus norvegicus, UniProt P16257). In words: Benzodiazepine receptor (peripheral) binding. Particulars: [^3H]PK 11195, Rat heart, read-out: CR6086 Activity at 10µM.
The target in a further experiment is 5-HT2B (Homo sapiens, UniProt P41595). In words: Serotonin receptor 5-HT2B binding. Particulars: [^125I](±)DOI, Human recombinant CHO cells, read-out: CR6086 Activity at 10µM.
The next experiment concerns the target VPAC1 (VIP1) (Homo sapiens, UniProt P32241). Kind of experiment: VPAC1 receptor binding. Particulars: [^125I]VIP, Human recombinant CHO cells, read-out: CR6086 Activity at 10µM.
A further experiment concerns the target κ (KOP) (Homo sapiens, UniProt P41145). Kind of experiment: Opioid receptor κ (KOP) binding. Particulars: [^3H]U 69593, Human recombinant CHO cells, read-out: CR6086 Activity at 10µM.
Another experiment deals with PAC1 (PACAP) (Homo sapiens, UniProt P41586). Kind of experiment: PAC1 receptor binding. Particulars: [^125I]PACAP1-27, Human recombinant CHO cells, read-out: CR6086 Activity at 10µM.
Another experiment deals with α1 (non-selective). In words: Adrenergic receptor α1 binding. Particulars: [^3H]prazosin, Rat cerebral cortex.
Experiment [1] deals with arthritic mice (collagen-induced arthritis model). In words: Serum anti-bCII IgG antibodies (ELISA), CIA mice third study. In kind it is in vivo, mouse. Particulars: 30 mg/kg CR6086, end of treatment. On the procedure:
In a third study, mice were randomised into the following treatment groups: naive, vehicle, 30 mg/kg CR6086, 1 or 3 mg/kg MTX, with the latter administered alone or in combination with 30 mg/kg CR6086. CR6086 was administered orally once daily. MTX was administered intraperitoneally three times per week (every third day). Mice were treated with test drugs for 16 days.
At the end of the treatment period, animals were killed, and their paws were explanted and processed for histology. In the third study, the serum concentrations of immunoglobulin G (IgG) antibodies against bCII were measured by ELISA (catalogue number 2032; Chondrex, Redmond, WA, USA).
(In general: An ELISA detects its analyte on a solid surface through an enzyme-linked reagent.)

The target of the next experiment is T1, COX-2 (Homo sapiens, UniProt P35354).
T1 construct: host or cells: Sf9 cells
Kind of experiment: Cyclooxygenase COX-2 enzymatic activity. The experiment is classed as biochemical. Particulars: Sf9 cells, read-out: CR6086 Activity at 10µM.

The target in a further experiment is CCR1 (Homo sapiens, UniProt P32246). Kind of experiment: CCR1 receptor binding. Particulars: [^125I]MIP-1α, Human recombinant HEK-293 cells, read-out: CR6086 Activity at 10µM.
For the next experiment, the target named is A2A (Homo sapiens, UniProt P29274). In words: Adenosine receptor A2A binding. Particulars: [^3H]CGS 21680, Human recombinant HEK-293 cells.
The next experiment deals with NOP (ORL1) (Homo sapiens, UniProt P41146). In words: Opioid receptor NOP (ORL1) binding. Particulars: [^3H]nociceptin, Human recombinant HEK-293 cells, read-out: CR6086 Activity at 10µM.
Another experiment addresses ETA (Homo sapiens, UniProt P25101). In words: Endothelin receptor ETA binding. Particulars: [^125I]endothelin-1, Human recombinant CHO cells, read-out: CR6086 Activity at 10µM.
The test system of a further experiment is PCP. Kind of experiment: PCP receptor binding. Particulars: [^3H]TCP, Rat cerebral cortex.
The target in another experiment is V1a (Homo sapiens, UniProt P37288). Kind of experiment: V1a receptor binding. Particulars: [^3H]AVP, Human recombinant CHO cells, read-out: CR6086 Activity at 10µM.
The subject of the next experiment is ER. In words: Nuclear receptor ER binding. Particulars: [^3H]estradiol, MCF-7 cells.
The target of another experiment is H2 (Homo sapiens, UniProt P25021). Kind of experiment: Histamine receptor H2 binding. Particulars: [^125I]APT, Human recombinant CHO cells, read-out: CR6086 Activity at 10µM.
Another experiment deals with P2Y. In words: Purinergic receptor P2Y binding. Particulars: [^35S]dATPαS, Rat cerebral cortex.
For the next experiment, the target named is CB1 (Homo sapiens, UniProt P21554). Kind of experiment: Cannabinoid receptor CB1 binding. Particulars: [^3H]CP 55940, Human recombinant CHO cells, read-out: CR6086 Activity at 10µM.
Another experiment addresses MT1 (ML1A) (Homo sapiens, UniProt P48039). In words: MT1 receptor binding. Particulars: [^125I]2-iodomelatonin, Human recombinant CHO cells, read-out: CR6086 Activity at 10µM.
A further experiment has as its system IL-23 release. Kind of experiment: IL-23 release from human dendritic cells. In kind it is cell-based. Particulars: Dendritic cell, PGE2-stimulated, 24 h. As to the method: PBMCs were purified using Histopaque (Sigma-Aldrich, St. Louis, MO, USA). CD14^+ cells were positively selected in a magnetic field (magnetic-activated cell sorting [MACS]; Miltenyi Biotec, Bergisch Gladbach, Germany). Purified CD14^+ cells were subsequently cultured for 7 days in differentiation medium (RPMI 1640 + 10% FBS, granulocyte-macrophage colony-stimulating factor 50 ng/ml and IL-4 100 ng/ml) and then stimulated with LPS (10 ng/ml), R848 2.5 μg/ml and PGE2 10 nM for 24 h in the presence of CR6086 (0.01–30 μM) or naproxen (1–30 μM). IL-23 release was measured by enzyme-linked immunosorbent assay (ELISA) (R&D Systems, Minneapolis, MN, USA).

pIC50: −log10 of the molar value.

Chain of ETA (P25101 21-427): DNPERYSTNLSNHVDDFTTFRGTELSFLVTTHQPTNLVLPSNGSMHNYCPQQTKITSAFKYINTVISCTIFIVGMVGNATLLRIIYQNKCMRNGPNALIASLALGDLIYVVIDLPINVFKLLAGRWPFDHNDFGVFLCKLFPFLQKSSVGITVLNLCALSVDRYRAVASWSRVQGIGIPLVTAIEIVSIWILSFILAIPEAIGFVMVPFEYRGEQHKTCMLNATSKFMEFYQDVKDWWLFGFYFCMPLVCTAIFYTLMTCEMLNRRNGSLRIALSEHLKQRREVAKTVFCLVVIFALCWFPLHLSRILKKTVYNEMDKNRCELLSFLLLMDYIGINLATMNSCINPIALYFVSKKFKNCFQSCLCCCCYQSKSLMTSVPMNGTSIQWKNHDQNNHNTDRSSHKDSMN
Chain of VPAC1 (VIP1) (P32241 31-457): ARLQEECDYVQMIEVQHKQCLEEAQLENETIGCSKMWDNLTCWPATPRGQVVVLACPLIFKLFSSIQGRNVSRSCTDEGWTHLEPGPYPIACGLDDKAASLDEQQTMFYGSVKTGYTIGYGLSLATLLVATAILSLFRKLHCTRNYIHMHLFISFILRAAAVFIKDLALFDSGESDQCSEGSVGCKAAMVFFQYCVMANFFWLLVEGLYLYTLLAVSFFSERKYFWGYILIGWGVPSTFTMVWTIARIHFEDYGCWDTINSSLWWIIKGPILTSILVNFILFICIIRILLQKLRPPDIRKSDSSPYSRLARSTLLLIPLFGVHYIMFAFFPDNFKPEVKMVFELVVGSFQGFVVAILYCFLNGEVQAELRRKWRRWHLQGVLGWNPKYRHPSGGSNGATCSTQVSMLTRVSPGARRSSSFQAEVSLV
Chain of MT1 (ML1A) (P48039 whole entry): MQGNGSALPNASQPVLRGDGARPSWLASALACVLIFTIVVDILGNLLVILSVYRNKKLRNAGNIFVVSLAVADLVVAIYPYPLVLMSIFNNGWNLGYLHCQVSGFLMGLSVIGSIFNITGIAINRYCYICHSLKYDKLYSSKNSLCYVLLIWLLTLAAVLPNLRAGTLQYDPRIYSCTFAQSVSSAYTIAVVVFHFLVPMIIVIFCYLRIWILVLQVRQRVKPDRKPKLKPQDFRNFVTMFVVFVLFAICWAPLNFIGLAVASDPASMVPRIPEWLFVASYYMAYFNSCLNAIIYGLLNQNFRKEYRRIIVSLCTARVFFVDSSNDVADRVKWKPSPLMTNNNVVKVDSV
Chain of H2 (P25021 whole entry): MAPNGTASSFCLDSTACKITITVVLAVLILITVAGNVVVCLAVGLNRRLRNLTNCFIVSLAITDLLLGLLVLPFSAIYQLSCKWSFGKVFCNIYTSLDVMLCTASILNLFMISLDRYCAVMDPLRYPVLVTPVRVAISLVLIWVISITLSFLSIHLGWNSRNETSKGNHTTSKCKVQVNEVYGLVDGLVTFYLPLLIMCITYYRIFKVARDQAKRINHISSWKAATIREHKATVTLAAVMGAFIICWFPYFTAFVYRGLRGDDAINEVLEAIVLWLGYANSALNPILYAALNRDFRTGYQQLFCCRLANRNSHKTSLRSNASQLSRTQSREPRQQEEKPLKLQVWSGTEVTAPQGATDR
Chain of κ (KOP) (P41145 whole entry): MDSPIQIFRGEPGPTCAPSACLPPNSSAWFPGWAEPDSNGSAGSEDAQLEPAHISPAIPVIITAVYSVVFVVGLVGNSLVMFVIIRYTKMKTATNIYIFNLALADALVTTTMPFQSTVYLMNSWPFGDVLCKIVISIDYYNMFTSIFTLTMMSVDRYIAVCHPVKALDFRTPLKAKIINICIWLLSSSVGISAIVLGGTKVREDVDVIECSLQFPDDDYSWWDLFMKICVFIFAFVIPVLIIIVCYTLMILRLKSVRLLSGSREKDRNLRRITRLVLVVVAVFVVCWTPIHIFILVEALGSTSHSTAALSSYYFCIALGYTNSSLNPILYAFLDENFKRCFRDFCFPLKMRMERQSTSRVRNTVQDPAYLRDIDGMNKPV
Chain of CB1 (P21554 whole entry): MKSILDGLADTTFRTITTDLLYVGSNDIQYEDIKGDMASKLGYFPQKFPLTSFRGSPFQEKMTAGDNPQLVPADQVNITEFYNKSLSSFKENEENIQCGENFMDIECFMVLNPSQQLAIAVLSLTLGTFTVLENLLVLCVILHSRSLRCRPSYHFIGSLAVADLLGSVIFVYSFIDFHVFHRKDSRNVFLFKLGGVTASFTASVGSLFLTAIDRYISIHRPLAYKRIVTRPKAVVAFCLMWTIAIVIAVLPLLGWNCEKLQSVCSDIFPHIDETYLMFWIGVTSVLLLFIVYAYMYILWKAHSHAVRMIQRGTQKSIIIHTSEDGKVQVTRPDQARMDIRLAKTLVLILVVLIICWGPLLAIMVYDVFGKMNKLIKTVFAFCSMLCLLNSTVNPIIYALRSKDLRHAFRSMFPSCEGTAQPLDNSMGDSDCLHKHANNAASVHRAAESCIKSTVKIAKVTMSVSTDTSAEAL
Chain of V1a (P37288 whole entry): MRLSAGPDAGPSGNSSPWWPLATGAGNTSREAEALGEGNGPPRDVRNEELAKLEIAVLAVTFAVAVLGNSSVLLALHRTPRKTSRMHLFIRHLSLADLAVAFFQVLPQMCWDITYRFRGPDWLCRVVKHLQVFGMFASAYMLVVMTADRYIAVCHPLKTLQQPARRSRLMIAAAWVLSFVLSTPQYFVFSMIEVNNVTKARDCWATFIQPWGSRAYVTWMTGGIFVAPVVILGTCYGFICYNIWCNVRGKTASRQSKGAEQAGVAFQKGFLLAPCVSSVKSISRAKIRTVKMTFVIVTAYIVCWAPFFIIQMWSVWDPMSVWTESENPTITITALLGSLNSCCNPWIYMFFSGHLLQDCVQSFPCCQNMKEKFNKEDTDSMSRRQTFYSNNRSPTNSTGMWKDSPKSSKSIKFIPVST
Chain of CCR1 (P32246 whole entry): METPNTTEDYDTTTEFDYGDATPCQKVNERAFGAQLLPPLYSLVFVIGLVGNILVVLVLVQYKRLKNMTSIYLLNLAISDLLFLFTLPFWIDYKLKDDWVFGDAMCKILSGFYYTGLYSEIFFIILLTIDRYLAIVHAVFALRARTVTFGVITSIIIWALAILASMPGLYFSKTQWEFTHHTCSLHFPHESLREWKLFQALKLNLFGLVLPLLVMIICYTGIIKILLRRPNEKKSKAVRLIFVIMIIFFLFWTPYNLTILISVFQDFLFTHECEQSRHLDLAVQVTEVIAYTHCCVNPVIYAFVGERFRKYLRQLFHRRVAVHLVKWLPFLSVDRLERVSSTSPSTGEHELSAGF
Chain of A2A (P29274 whole entry): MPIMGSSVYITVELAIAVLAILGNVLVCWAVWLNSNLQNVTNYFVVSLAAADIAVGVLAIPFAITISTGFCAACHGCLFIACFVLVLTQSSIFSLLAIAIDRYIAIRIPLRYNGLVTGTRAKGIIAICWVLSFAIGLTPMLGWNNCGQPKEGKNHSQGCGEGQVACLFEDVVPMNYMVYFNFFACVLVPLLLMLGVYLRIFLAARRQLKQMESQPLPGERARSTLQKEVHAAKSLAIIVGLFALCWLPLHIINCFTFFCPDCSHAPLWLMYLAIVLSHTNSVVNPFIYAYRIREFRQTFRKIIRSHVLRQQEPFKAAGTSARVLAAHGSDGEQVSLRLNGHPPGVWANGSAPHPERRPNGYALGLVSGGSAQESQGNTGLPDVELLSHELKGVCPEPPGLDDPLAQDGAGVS
Chain of 5-HT6 (P50406 whole entry): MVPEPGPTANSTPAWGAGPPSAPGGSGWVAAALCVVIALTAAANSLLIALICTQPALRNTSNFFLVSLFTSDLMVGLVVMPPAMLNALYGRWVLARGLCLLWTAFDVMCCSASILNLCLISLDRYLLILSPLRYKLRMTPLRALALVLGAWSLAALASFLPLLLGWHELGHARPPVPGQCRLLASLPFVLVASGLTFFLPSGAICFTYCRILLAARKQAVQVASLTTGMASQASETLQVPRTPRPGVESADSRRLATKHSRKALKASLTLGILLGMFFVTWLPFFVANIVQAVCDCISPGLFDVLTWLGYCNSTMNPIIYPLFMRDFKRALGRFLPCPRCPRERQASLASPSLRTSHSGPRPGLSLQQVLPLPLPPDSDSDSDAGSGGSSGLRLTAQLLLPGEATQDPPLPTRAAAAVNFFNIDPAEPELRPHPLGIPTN
Chain of PAC1 (PACAP) (P41586 21-468): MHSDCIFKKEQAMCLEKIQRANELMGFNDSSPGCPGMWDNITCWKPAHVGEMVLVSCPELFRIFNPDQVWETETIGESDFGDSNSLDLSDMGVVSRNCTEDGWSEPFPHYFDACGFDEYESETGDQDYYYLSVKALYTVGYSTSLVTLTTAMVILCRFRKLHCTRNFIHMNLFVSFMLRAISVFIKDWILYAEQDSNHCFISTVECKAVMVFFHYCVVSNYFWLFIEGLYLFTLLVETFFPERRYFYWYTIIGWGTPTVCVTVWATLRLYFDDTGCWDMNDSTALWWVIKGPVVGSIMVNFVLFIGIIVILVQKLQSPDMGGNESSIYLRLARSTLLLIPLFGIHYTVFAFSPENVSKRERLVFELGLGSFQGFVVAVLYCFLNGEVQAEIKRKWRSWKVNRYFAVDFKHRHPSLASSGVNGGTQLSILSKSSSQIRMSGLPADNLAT
Chain of NK3 (P29371 whole entry): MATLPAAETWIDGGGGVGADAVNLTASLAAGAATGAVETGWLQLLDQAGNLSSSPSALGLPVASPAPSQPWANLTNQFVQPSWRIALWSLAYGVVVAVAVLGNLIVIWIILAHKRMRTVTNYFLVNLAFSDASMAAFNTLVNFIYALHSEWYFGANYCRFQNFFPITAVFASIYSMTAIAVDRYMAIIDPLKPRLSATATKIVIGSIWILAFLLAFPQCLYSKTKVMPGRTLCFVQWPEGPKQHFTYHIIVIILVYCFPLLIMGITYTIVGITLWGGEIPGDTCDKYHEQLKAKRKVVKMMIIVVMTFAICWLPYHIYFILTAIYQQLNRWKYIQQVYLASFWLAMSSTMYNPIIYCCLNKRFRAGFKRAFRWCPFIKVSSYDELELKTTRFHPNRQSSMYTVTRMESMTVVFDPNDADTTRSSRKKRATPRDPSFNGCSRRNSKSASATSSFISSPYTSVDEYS

Turning to `O=C([O-])c1ccc(C2(NC(=O)[C@H]3CC4(CCN3Cc3ccc(C(F)(F)F)cc3)CC4)CC2)cc1.[Na+]` [CR6086, Sodium (R)-4-(1-(6-(4-(trifluoromethyl)benzyl)-6-azaspiro[2.5]octane-5-carboxamido)cyclopropyl)benzoate], the inhibition at 10 µM at NK3, on 5-HT6, at BZD (peripheral), on 5-HT2B, on VPAC1 (VIP1) and at κ (KOP) was below 20% throughout. The inhibition at 10 µM on PAC1 (PACAP), on COX-2, on CCR1, on NOP (ORL1), at ETA and on V1a was below 20% each time. The inhibition at 10 µM on H2, on CB1 and at MT1 (ML1A) was below 20% each time. For the same compound, the “CR6086 Activity at 10µM” value in the experiment with α1 (non-selective), on A2A, in the experiment with PCP, in the experiment on ER and in the experiment on P2Y was “IN (IN = < 20% displacement or inhibition (all tables))” each time. For the same compound, the “Anti-collagen II” value in [1] stood at 324.91 ± 79.82 µg/mL. For the same compound, in the experiment with IL-23 release, the pIC50 is 6.22.

As usually defined, the pIC50 is −log10 of the IC50, conventionally taken in molar units. Higher therefore signals a low IC50.

Source of the values: publication PMC5831858, “Pharmacological characterisation of CR6086, a potent prostaglandin E2 receptor 4 antagonist, as a new potential disease-modifying anti-rheumatic drug” (Arthritis Research & Therapy, 2018).
